Structures are written as SMILES.

For one assay, the system named is HCV genotype 1a replicon cell line (APC89; Huh7.5 cell background). As to the kind of experiment: HCV Genotype 1a Replicon Assay (NS3-specific protease activity readout). The class given is cell-based. The conditions noted are these: Hepatitis C virus, 72 hour incubation, read-out: Genotype 1a (pEC50 class, HCV genotype 1a replicon assay) (converted). As for the experimental part:
Assay 2: HCV Genotype 1a Replicon Assay
The HCV genotype 1a replicon cell line was obtained from Apath LLC (APC89; Huh7.5 cell background). This subgenomic replicon contains the N-terminus of the HCV core protein fused to the neomycin-resistance selectable marker. The EMCV IRES lies downstream and drives expression of the non-structural proteins NS3-NS5B. Compound potencies were determined using the NS3-specific protease activity in lysates as a measurement of compound inhibition of replicon levels.
(§1) Cells were grown at 37° C. in a 5% CO2 humidified incubator in DMEM (Invitrogen) with 10% FBS (HyClone), 1×NEAA (Invitrogen), 1× Pen-Strep (Invitrogen), and 850 μg/mL G418 (Invitrogen). On day 1 of the assay, cells were plated at 15,000 cells/well in black 96-well tissue culture plates (Costar) in 200 μL media lacking G418. Four hours later, once the cells had adhered, the media was removed and replaced with media (no G418) containing dose-responses of test compounds. Compounds were initially diluted in DMSO and then diluted another 200× in media to bring the final DMSO concentration down to 0.5%. The cells were incubated with test compounds for 48 or 72 hours. At the end of the incubation period, media and compound were removed from the plates.
To determine the NS3-specific protease activity in lysates, the cells were lysed at room temperature in 50 μL/well of 50 mM Hepes pH 7.5, 150 mM NaCl, 15% Glycerol, 0.15% Triton X-100, 10 mM DTT for 20 minutes with shaking. 50 μL of an NS3/4a protease-specific FRET substrate (Anaspec RET S1 Cat#22991) was then added to the wells at a final concentration of 15 μM. The plates were incubated at 37° C. for 20 minutes, which corresponds to a timepoint at which the protease activity is still in the linear phase. Protease activity was determined by measuring fluorescence (Excitation: 340 nm; Emission: 509 nm).
To analyze the data, the fluorescence was plotted vs. the compound concentration, and EC50 values were determined from a 4-parameter robust fit model using GraphPad Prism software.
A general note: Replicon systems follow genome replication, usually without infectious particles.
Take `COC(=O)N[C@H](C(=O)N1CCC[C@H]1c1nc(-c2ccc(-c3ccc(NC(=O)c4ccc(N5CCN(C(=O)C6CC6)CC5)cc4)cc3)cc2)c[nH]1)C(C)C` [Example 1, {(S)-1-[(S)-2-(4-{4′-[4-(4-cyclopropanecarbonyl-piperazin-1-yl)-benzoylamino]-biphenyl-4-yl}-1H-imidazol-2-yl)-pyrrolidine-1-carbonyl]-2-methyl-propyl}-carbamic acid methyl ester]: the EC50 is 1 to 10 nM.

Take `CCOc1cc(NC(=O)c2ccc(N3CCN(C(=O)NC)C[C@H]3C)nc2)ccc1-c1ccc(-c2c[nH]c([C@@H]3CCCN3C(=O)[C@@H](NC(=O)OC)C(C)C)n2)cc1` [Example 23]: the EC50 is 0.1 to 1 nM.

With `CCOc1cc(NC(=O)c2ccc(N3CCN(C(=O)c4c[nH]cn4)C[C@H]3C)nc2)ccc1-c1ccc(-c2c[nH]c([C@@H]3CCCN3C(=O)[C@@H](NC(=O)OC)C(C)C)n2)cc1` [Example 24], the EC50 is 0.1 to 1 nM.

Turning to `COC(=O)N[C@H](C(=O)N1CCC[C@H]1c1nc(-c2ccc(-c3cc(F)c(NC(=O)c4ccc(N5CCN(C(=O)[C@]6(C)CCCN6C(=O)OC(C)(C)C)C[C@H]5C)nc4)cc3OC(F)(F)F)cc2)c[nH]1)C(C)C` [Example 27-8], the EC50 is < 0.1 nM.

For the compound `COC(=O)N[C@H](C(=O)N1CCC[C@H]1c1nc(-c2ccc(-c3cc(F)c(NC(=O)c4ccc(N5CCN(C(=O)[C@]6(C)CCCN6)C[C@H]5C)nc4)cc3OC(F)(F)F)cc2)c[nH]1)C(C)C` [Example 27-9], the EC50 is 1 to 10 nM.

On to `COC(=O)N[C@H](C(=O)N1CCC[C@H]1c1nc(-c2ccc(-c3cc(OC)c(NC(=O)c4ccc(N5CCN(C(=O)c6c[nH]cn6)C[C@H]5C)nc4)cc3OC(F)(F)F)cc2)c[nH]1)C(C)C` [Example 27-29], for which the EC50 was 0.1 to 1 nM.

On to `CNC(=O)N1CCN(c2ccc(C(=O)Nc3cc(OC(F)(F)F)c(-c4ccc(-c5c[nH]c([C@@H]6CCCN6C(=O)[C@@H](NC(=O)OC)C(C)C)n5)cc4)cc3OC)cn2)[C@H](C)C1` [Example 27-32], for which the EC50 is 0.1 to 1 nM.

On to `COC(=O)N[C@H](C(=O)N1CCC[C@H]1c1nc(-c2ccc(-c3cc(F)c(NC(=O)c4ccc(N5CCN(C(=O)c6ncccn6)C[C@H]5C)nc4)cc3OC(F)(F)F)cc2)c[nH]1)C(C)C` [Example 27-35], for which the EC50 was 0.1 to 1 nM.

For `COC(=O)N[C@H](C(=O)N1CCC[C@H]1c1nc(-c2ccc(-c3cc(F)c(NC(=O)c4ccc(N5CCN(C(=O)NC(C)C)C[C@H]5C)nc4)cc3OC(F)(F)F)cc2)c[nH]1)C(C)C` [Example 27-39], the EC50 was 0.1 to 1 nM.

Take `COC(=O)N[C@H](C(=O)N1CCC[C@H]1c1nc(-c2ccc(-c3cc(F)c(NC(=O)c4ccc(N5CCN(C(=O)NC6CC6)C[C@H]5C)nc4)cc3OC(F)(F)F)cc2)c[nH]1)C(C)C` [Example 27-40]: the EC50 was 0.1 to 1 nM.

As to `COC(=O)N[C@H](C(=O)N1CCC[C@H]1c1nc(-c2ccc(-c3cc(F)c(NC(=O)c4ccc(N5CCN(C(=O)[C@]6(C)CCCN6C(=O)[C@H](C)O)C[C@H]5C)nc4)cc3OC(F)(F)F)cc2)c[nH]1)C(C)C` [Example 27-49], the EC50 was < 0.1 nM.

For the compound `COC(=O)N[C@H](C(=O)N1CCC[C@H]1c1nc(-c2ccc(-c3cc(Cl)c(NC(=O)c4ccc(N5CCN(C(=O)c6c[nH]cn6)C[C@H]5C)nc4)cc3OC(F)(F)F)cc2)c[nH]1)C(C)C` [Example 27-66], the EC50 is < 0.1 nM.

Take `COC(=O)N[C@H](C(=O)N1CCC[C@H]1c1nc(-c2ccc(-c3cc(Cl)c(NC(=O)c4ccc(N5CCN(C(=O)[C@]6(C)CCCN6C(=O)c6c[nH]cn6)C[C@H]5C)nc4)cc3OC(F)(F)F)cc2)c[nH]1)C(C)C` [Example 27-71]: the EC50 is < 0.1 nM.

Regarding `COCCNC(=O)N1CCC[C@@]1(C)C(=O)N1CCN(c2ccc(C(=O)Nc3cc(OC(F)(F)F)c(-c4ccc(-c5c[nH]c([C@@H]6CCCN6C(=O)[C@@H](NC(=O)OC)C(C)C)n5)cc4)cc3Cl)cn2)[C@H](C)C1` [Example 27-74], the EC50 is < 0.1 nM.

Consider `COC(=O)N[C@H](C(=O)N1CCC[C@H]1c1nc(-c2ccc(-c3cc(Cl)c(NC(=O)c4ccc(N5CCN(C(=O)[C@]6(C)CCCN6C(=O)[C@@H](N)C(C)C)C[C@H]5C)nc4)cc3OC(F)(F)F)cc2)c[nH]1)C(C)C` [Example 27-75], for which the EC50 is < 0.1 nM.

Consider `COC(=O)N[C@H](C(=O)N1CCC[C@H]1c1nc(-c2ccc(-c3cc(Cl)c(NC(=O)c4ccc(N5CCN(C(=O)[C@]6(C)CCCN6C(=O)CO)C[C@H]5C)nc4)cc3OC(F)(F)F)cc2)c[nH]1)C(C)C` [Example 27-76], for which the EC50 was < 0.1 nM.

Regarding `COC(=O)N[C@H](C(=O)N1CCC[C@H]1c1nc(-c2ccc(-c3cc(Cl)c(NC(=O)c4ccc(N5C[C@H](C)N(C(=O)[C@]6(C)CCCN6C(=O)CN(C)C)C[C@H]5C)nc4)cc3OC(F)(F)F)cc2)c[nH]1)C(C)C` [Example 28-41], the EC50 was < 0.1 nM.

In the case of `CNC(=O)C1CCC[C@@]1(C)C(=O)N1C[C@@H](C)N(c2ccc(C(=O)Nc3cc(OC(F)(F)F)c(-c4ccc(-c5c[nH]c([C@@H]6CCCN6C(=O)[C@@H](NC(=O)OC)C(C)C)n5)cc4)cc3Cl)cn2)C[C@@H]1C` (some centres unmarked) [Example 28-42], the EC50 was < 0.1 nM.

Consider `COCCNC(=O)N1CCC[C@@]1(C)C(=O)N1C[C@@H](C)N(c2ccc(C(=O)Nc3cc(OC(F)(F)F)c(-c4ccc(-c5c[nH]c([C@@H]6CCCN6C(=O)[C@@H](NC(=O)OC)C(C)C)n5)cc4)cc3Cl)cn2)C[C@@H]1C` [Example 28-43], for which the EC50 is < 0.1 nM.

As for `COC(=O)N[C@H](C(=O)N1CCC[C@H]1c1nc(-c2ccc(-c3ccc(C(=O)Nc4ccc(N5CCN(C(=O)[C@]6(C)CCCN6C(=O)[C@@H](NC(=O)OC)C(C)O)C[C@H]5C)nc4)cc3OC(F)(F)F)cc2)c[nH]1)C(C)C` (some centres unmarked) [Example 67], the EC50 was 0.1 to 1 nM.

For the compound `COC(=O)N[C@H](C(=O)N1CCC[C@H]1c1nc(-c2ccc(-c3ccc(C(=O)Nc4ccc(N5CCN(C(=O)[C@]6(C)CCCN6C(=O)[C@@H](NC(=O)OC)C(C)(C)C)C[C@H]5C)nc4)cc3OC(F)(F)F)cc2)c[nH]1)C(C)C` [Example 70], the EC50 was 0.1 to 1 nM.

Take `COC(=O)N[C@H](C(=O)N1CCC[C@H]1c1nc(-c2ccc(-c3ccc(NC(=O)c4ccc(N5C[C@H](C)N(C(=O)C6CC6)C[C@H]5C)nc4)c(C)n3)cc2)c[nH]1)C(C)C` [Example 73]: the EC50 is 1 to 10 nM.

`CNC(=O)N1C[C@@H](C)N(c2ccc(C(=O)Nc3ccc(-c4ccc(-c5c[nH]c([C@@H]6CCCN6C(=O)[C@@H](NC(=O)OC)C(C)C)n5)cc4)nc3C)cn2)C[C@@H]1C` [Example 74]: the EC50 is 1 to 10 nM.

With `COC(=O)N[C@H](C(=O)N1CCC[C@H]1c1nc(-c2ccc(-c3ccc(NC(=O)c4ccc(N5C[C@H](C)N(C(=O)c6c[nH]cn6)C[C@H]5C)nc4)c(C)n3)cc2)c[nH]1)C(C)C` [Example 75], the EC50 is 1 to 10 nM.

Consider `COC(=O)N[C@H](C(=O)N1CCC[C@H]1c1nc(-c2ccc(-c3ccc(NC(=O)c4ccc(N5CCN(C(=O)[C@H]6CC6(C)C)C[C@H]5C)nc4)cc3OC(F)(F)F)nc2)c[nH]1)C(C)C` [Example 76, {(S)-1-[(S)-2-(4-{6-[4-({6-[(R)-4-((S)-2,2-Dimethyl-cyclopropanecarbonyl)-2-methyl-piperazin-1-yl]-pyridine-3-carbonyl}-amino)-trifluoromethoxyphenyl]-pyridin-3-yl}-1H-imidazol-2-yl)-pyrrolidine-1-carbonyl]-2-methyl-propyl}-carbamic acid methyl ester], for which the EC50 is 0.1 to 1 nM.

The next assay has as its system HCV genotype 1b replicon cell line (APC144; Huh7 cell background). In words: HCV Genotype 1b Replicon Assay (Renilla luciferase readout). The class given is cell-based. The settings on record: Hepatitis C virus, Huh-7; read-out: Genotype 1b (pEC50 class, HCV genotype 1b replicon assay) (converted).
Text: Assay 1: HCV Genotype 1b Replicon Assay
The HCV genotype 1b replicon cell line was obtained from Apath LLC (Brooklyn, N.Y.) (APC144; Huh7 cell background). This subgenomic replicon contains the N-terminus of the HCV core protein fused to the neomycin-resistance selectable marker. The EMCV IRES lies downstream and drives expression of humanized Renilla luciferase fused to the non-structural proteins NS3-NS5B. This cell line was used to determine compound potency using the luciferase activity readout as a measurement of compound inhibition of replicon levels.
as §1, with “500” for “850”, “10,000” for “15,000”, “white” for “black”, “have” for “had”, “48” for “48 or 72”, “plates and the luciferase activity was determined using Promega Renilla-Glo reagents.” for “plates.”
To analyze the data, the luciferase activity was plotted vs. the compound concentration, and EC50 values were determined from a 4-parameter robust fit model with the GraphPad Prism software package (GraphPad Software, Inc., San Diego, Calif.). Results are expressed as the negative decadic logarithm of the EC50 value, pEC50.
Test compounds having a higher pEC50 value in this assay show greater inhibition of HCV genotype 1b replication.
`COC(=O)N[C@H](C(=O)N1CCC[C@H]1c1nc(-c2ccc(-c3ccc(NC(=O)c4ccc(N5CCN(C(=O)C6CC6)CC5)cc4)cc3)cc2)c[nH]1)C(C)C` [Example 1, {(S)-1-[(S)-2-(4-{4′-[4-(4-cyclopropanecarbonyl-piperazin-1-yl)-benzoylamino]-biphenyl-4-yl}-1H-imidazol-2-yl)-pyrrolidine-1-carbonyl]-2-methyl-propyl}-carbamic acid methyl ester]: the EC50 was < 0.1 nM.

The values are drawn from patent US8921372B2, “Inhibitors of hepatitis C virus” (Theravance Biopharma R&D IP, LLC, priority 2010, dated 2014).
